{
  "source": "patent US5968526A",
  "about": "“T cell epitopes of the major allergens from Dermatophagoides (house dust mite)” (Immulogic Pharamaceutical Corporation, priority 1995, dated 1999)",
  "test_system": "T cell lines primed in vitro to Der p I",
  "assay": "secondary proliferation of Der p I-primed T cell lines (Examples V, VII, XI)",
  "assay_type": "cell-based, human",
  "conditions": "for T cell reactivity: overlapping Der p I peptides",
  "procedure,_shortened": "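PBMC were primed with native or recombinant Der p I (10 or 20 μg/ml) for 7 days, then expanded with IL-2 and IL-4. Resting T cells (2×10^4) were cultured 3 days with irradiated autologous EBV-B cells or PBMC and titrated protein or peptides, then pulsed 16 h with 1 μCi ³H-thymidine. S.I. was peak-response CPM over medium-only CPM, with S.I. ≥2.0 scored positive.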",
  "data": [
    {"substance": "DF I-22.2: VAATESAYLAYRNTSLDLSEQELVD, amino acid residues 40-64 of Der f I", "values": [
      {"measurement": "T cell response to selected Der f I peptides", "setting": "Der p I primed, 30 positive experiments, FIG. 15a", "value": "respond significantly"}
    ]},
    {"substance": "DP I-1: Der p I peptide, amino acid residues 1-20 (TNACSINGNAPAEIDLRQMR)", "values": [
      {"measurement": "percent of positive responses (S.I. of at least 2)", "setting": "33 patients", "value": 73, "unit": "%"},
      {"measurement": "T cell reactivity", "setting": "33 positive experiments", "value": "significant regions of T cell reactivity"}
    ]},
    {"substance": "DP I-3: Der p I peptide (TVTPIRMQGGCGSCWAFSGVAATESAYLA)", "values": [
      {"measurement": "T cell reactivity", "setting": "33 positive experiments", "value": "significant regions of T cell reactivity"}
    ]},
    {"substance": "DP I-21.2: Der p I peptide; unique peptide (SINGNAPAEIDLRQMRTVTPIRMQ)", "values": [
      {"measurement": "T cell response to selected Der p I peptides", "setting": "33 positive experiments, FIG. 13", "value": "respond significantly"},
      {"measurement": "positivity index (P.I.)", "setting": "mean S.I. × percent responders, 33 patients", "value": "at least 150"}
    ]}
  ]
}
